Calls of active or inactive are those of the source. No cut-off for these calls is given here.
Legend:
[1] = system: RAW264.7; assay: Inhibition of NO production in LPS-stimulated mouse RAW264.7 cells; format: functional, cell-based
[2] = Cytotoxicity against human MCF7-DOX cells measured after 48 hrs by MTT assay; format: cell-based
[3] = Anti-MDR activity in human MCF7-DOX cells assessed as reversal of cell resistance to doxorubicin by measuring reversal fold at 10 uM measured after 48 hrs by MTT assay; format: functional
[4] = Anti-MDR activity in human MCF7-DOX cells assessed as reversal of cell resistance to doxorubicin by measuring reversal fold at 30 uM measured after 48 hrs by MTT assay; format: functional

C/C=C(\C)C(=O)O[C@H]1C[C@@H](OC(C)=O)[C@@]2(C)CO[C@H]3[C@@H](O)[C@@]4(C)C5=C(C)[C@H](c6ccoc6)C[C@@H]5OCC[C@@H]4[C@]1(C)[C@@H]32
inhibition [1]: inactive | Activity [2]: Non-Toxic | fold change (FC) [3]: 2.7 | fold change (FC) [4]: 5.2

C/C=C(\C)C(=O)O[C@@H]1C[C@H](OC(C)=O)[C@]23CO[C@H](CO)[C@H]2[C@](C)([C@]24O[C@@]2(C)[C@H]2C[C@@H]4O[C@@H]4O[C@H](OC)C[C@@]42O)[C@H](O)[C@@H]2OC[C@@]1(C(=O)OC)[C@H]23
inhibition [1]: inactive | Activity [2]: Non-Toxic

CC(=O)O[C@H]1C[C@@H](OC(C)=O)[C@@]2(C)CO[C@H]3[C@@H](O)[C@@]4(C)C5=CC[C@@H](c6ccoc6)[C@]5(C)OCC[C@@H]4[C@]1(C)[C@@H]32
inhibition [1]: inactive | Activity [2]: Non-Toxic

C/C=C(\C)C(=O)O[C@H]1C[C@@H](OC(C)=O)[C@@]2(C(=O)OC)CO[C@H]3[C@H]4O[C@]5(C)[C@H]6C[C@H](O[C@@H]7OC=C[C@@]76O)[C@]5(O)[C@@]4(C)[C@H](C(=O)CO)[C@]1(C)[C@@H]32
inhibition [1]: inactive | Activity [2]: Non-Toxic

C/C=C(\C)C(=O)O[C@H]1C[C@@H](OC(C)=O)[C@@]2(C)CO[C@H]3[C@@H](O)[C@@]4(C)C5=C(C)[C@H](c6ccoc6)C[C@@H]5O[C@@H](O)C[C@@H]4[C@]1(C)[C@@H]32
inhibition [1]: inactive | Activity [2]: Non-Toxic

C/C=C(\C)C(=O)O[C@H]1C[C@@H](OC(C)=O)[C@@]2(C)CO[C@H]3[C@@H](O)[C@@]4(C)C5=C(C)[C@H](c6ccoc6)C[C@@H]5O[C@@H](OC)C[C@@H]4[C@]1(C)[C@@H]32
inhibition [1]: inactive | Activity [2]: Non-Toxic

CC(=O)O[C@@H]1C[C@H](OC(=O)c2ccccc2)[C@@]2(C)[C@H]3[C@@H](OC[C@]13C)[C@@H](O)[C@@]1(C)C3=C(C)[C@H](c4ccoc4)C[C@@H]3OCC[C@@H]12
inhibition [1]: inactive | Activity [2]: Non-Toxic

C/C=C(\C)C(=O)O[C@H]1C[C@@H](OC(C)=O)[C@@]2(C)CO[C@H]3[C@@H](O)[C@@]4(C)C5=C(C)[C@H](C6=CCOC6=O)C[C@@H]5OCC[C@@H]4[C@]1(C)[C@@H]32
inhibition [1]: inactive | Activity [2]: Non-Toxic

C/C=C(\C)C(=O)O[C@@H]1C[C@H](OC(C)=O)[C@]23CO[C@H](CO)[C@H]2[C@](C)([C@]24O[C@@]2(C)[C@H]2C[C@@H]4O[C@@H]4O[C@H](OCC)C[C@@]42O)[C@H](O)[C@@H]2OC[C@@]1(C(=O)OC)[C@H]23
inhibition [1]: inactive | Activity [2]: Non-Toxic

CC(=O)O[C@H]1C[C@@H](OC(C)=O)[C@@]2(C)CO[C@H]3[C@@H](O)[C@@]4(C)C5=CC[C@@H](c6ccoc6)[C@]5(C)CC[C@@H]4[C@]1(C)[C@@H]32 [DIACETYLVILASININ]
inhibition [1]: inactive | Activity [2]: Non-Toxic | fold change (FC) [3]: 7.8 | fold change (FC) [4]: 18.3

C/C=C(\C)C(=O)O[C@H]1C[C@@H](OC(C)=O)[C@@]2(C)CO[C@H]3[C@@H](O)[C@]4(C)[C@H](C[C@@H]5O[C@H]6CC(c7ccoc7)=C(C)[C@@]64O5)[C@]1(C)[C@@H]32
inhibition [1]: inactive | Activity [2]: Non-Toxic

C/C=C(\C)C(=O)O[C@H]1C[C@@H](OC(C)=O)[C@@]2(C)CO[C@H]3[C@@H](O)[C@@](C)(C4=C(C)[C@H](c5ccoc5)CC4=O)[C@H](C(=O)CO)[C@]1(C)[C@@H]32
inhibition [1]: inactive | Activity [2]: Non-Toxic

C/C=C(\C)C(=O)O[C@@H]1C[C@H](OC(C)=O)[C@]23CO[C@H](CO)[C@H]2[C@](C)([C@]24O[C@@]2(C)[C@H]2C[C@@H]4O[C@@H]4O[C@H](OC)C[C@]42O)[C@H](O)[C@@H]2OC[C@@]1(C(=O)OC)[C@H]23
inhibition [1]: inactive | Activity [2]: Non-Toxic

CC(=O)OCC[C@H]1[C@]2(C)C3=C(C)[C@H](c4ccoc4)C[C@H]3O[C@@H]2[C@@H]2OC[C@]3(C)[C@H](OC(C)=O)C[C@H](OC(C)=O)[C@@]1(C)[C@@H]23
inhibition [1]: inactive | Activity [2]: Non-Toxic

CO[C@H]1C[C@H]2[C@](C)(C3=C(C)[C@H](c4ccoc4)C[C@@H]3O1)[C@H](O)[C@@H]1OC[C@]3(C)[C@H](OC(C)=O)C[C@H](OC(=O)c4ccccc4)[C@@]2(C)[C@@H]13
inhibition [1]: inactive | Activity [2]: Non-Toxic

C/C=C(\C)C(=O)O[C@H]1C[C@@H](OC(C)=O)[C@@]2(C)CO[C@H]3[C@@H](O)[C@@]4(C)C5=C(C)[C@H](c6ccoc6)C[C@@H]5O[C@@H](OCC)C[C@@H]4[C@]1(C)[C@@H]32
inhibition [1]: inactive | Activity [2]: Non-Toxic

C/C=C(\C)C(=O)O[C@H]1C[C@@H](OC(C)=O)[C@@]2(C)CO[C@H]3[C@@H](O)[C@@]4(C)C5=C(C)[C@H](C6=CCOC6=O)C[C@@H]5O[C@@H](OCC)C[C@@H]4[C@]1(C)[C@@H]32
inhibition [1]: inactive | Activity [2]: Non-Toxic

C/C=C(\C)C(=O)O[C@H]1C[C@@H](OC(C)=O)[C@@]2(C)CO[C@H]3[C@@H](O)[C@@]4(C)C5=C(C)[C@H](c6ccoc6)C[C@@H]5O[C@H](OC)C[C@@H]4[C@]1(C)[C@@H]32
inhibition [1]: inactive | Activity [2]: Non-Toxic | fold change (FC) [3]: 3.4 | fold change (FC) [4]: 4.5

CC(=O)O[C@H]1C[C@@H](OC(C)=O)[C@@]2(C)CO[C@H]3[C@@H](O)[C@@]4(C)C5=C(C)[C@H](c6ccoc6)C[C@@H]5OCC[C@@H]4[C@]1(C)[C@@H]32
inhibition [1]: inactive | Activity [2]: Non-Toxic

C/C=C(\C)C(=O)O[C@H]1C[C@@H](OC(C)=O)[C@@]2(C)CO[C@H]3[C@@H](O)[C@@]4(C)C5=C(C)[C@H](C6=CCOC6=O)C[C@@H]5O[C@@H](OC)C[C@@H]4[C@]1(C)[C@@H]32
inhibition [1]: inactive | Activity [2]: Non-Toxic

C/C=C(\C)C(=O)O[C@H]1C[C@@H](OC(C)=O)[C@@]2(C)CO[C@H]3[C@H]4O[C@]5(C)[C@H]6C[C@H](O[C@@H]7O[C@@H](OC)C[C@@]76O)[C@]5(O)[C@@]4(C)[C@H](C(=O)CO)[C@]1(C)[C@@H]32
inhibition [1]: inactive | Activity [2]: Non-Toxic

C/C=C(\C)C(=O)O[C@H]1C[C@@H](OC(C)=O)[C@@]2(C)CO[C@H]3[C@@H](O)[C@@]4(C)C5=CC[C@@H](c6ccoc6)[C@]5(C)OCC[C@@H]4[C@]1(C)[C@@H]32
inhibition [1]: inactive | Activity [2]: Non-Toxic

C/C=C(\C)C(=O)O[C@H]1C[C@@H](OC(C)=O)[C@@]2(C)CO[C@H]3[C@H]4O[C@]5(C)[C@H]6C[C@H](O[C@@H]7OC=C[C@@]76O)[C@]5(O)[C@@]4(C)[C@H](C(=O)CO)[C@]1(C)[C@@H]32
inhibition [1]: inactive | Activity [2]: Non-Toxic

COc1ccc(CCN(C)CCCC(C#N)(c2ccc(OC)c(OC)c2)C(C)C)cc1OC (stereo not drawn) [VERAPAMIL]
fold change (FC) [3]: 9.2
